{"source": "patent US20250066389A1", "about": "“HETEROCYCLIC AMIDES AND METHODS OF USING THE SAME” (Rgenta Therapeutics, Inc., priority 2021, published 2025)", "note": "Structures can show the parent of a compound that is named as a salt.", "data": [{"system": "PMS1", "assay": "Mini-Gene Reporter Assay—PMS1 (firefly luciferase mini-gene reporter transiently transfected into HEK293 cells)", "assay_type": "cell-based", "conditions": "Homo sapiens; at 5 uM; mini-gene firefly luciferase reporter in HEK293 cells; read-out: PMS1 % Effect at 5 uM", "from_the_text": "(§1) Example 76. Mini-Gene Reporter Assay—PMS1\n(§2) Mini-gene reporter constructs for each target site can be constructed by first PCR amplifying the region-of-interest including the sequence of the alternatively skipped, sequences of the immediate upstream and downstream introns, and sequences of the immediate upstream and downstream exons. Then the 3′ end of the amplified sequence can be ligated to a firefly luciferase reporter gene and cloned into the pcDNA3.1 vector backbone. The final reporter construct can be transiently transfected into HEK293 cells using Lipofectamine 3000 transfection reagents. Compounds that can induce the inclusion of the skipped exon in the reporter construct would increase the reporter firefly luciferase activity.\n(§3) Test compounds may be diluted in duplicates and dispensed into an assay plate. Transient mini-gene reporter cell line stock is resuspended and dispensed into the assay plate. Assay plates are then centrifuged and incubated. A luciferase reagent (e.g. ONE-Glo firefly luciferase reagent from Promega®) may be added to the assay plate and the luminescence (RLU) signals recorded. EC50 values may be determined by curve fitting in Levenberg-Marquardt algorithm.\n(§4) In Table D below, A indicates a IC50 (μM)<1 μM, B indicates a IC50 (μM) 1 μM to <10 μM, and C indicates a IC50 (μM) 10 μM to <50 μM. In Table D below, A indicates a >75% Effect at 5 μM μM. B indicates a 50 to <75% Effect at 5 μM μM, and C indicates a <50% Effect at 5 μM.", "units": {"activation at 5 µM": "%"}, "values": [{"smiles": "COc1cc2nc(C)cn2cc1C(=O)Nc1ccc(N2C[C@H]3CNC[C@H]3C2)cc1F", "note": "[Compound 161, N-(2-fluoro-4-((3aR,6aS)-hexahydropyrrolo[3,4-c]pyrrol-2(1H)-yl)phenyl)-7-methoxy-2-methylimidazo[1,2-a]pyridine-6-carboxamide]", "activation at 5 µM": "> 75"}, {"smiles": "COc1cc2nc(C)cn2cc1C(=O)Nc1ccc(N2CC(C)NCC2C)cc1F", "note": "(centres unmarked) [Compound 163, N-(4-(2,5-dimethylpiperazin-1-yl)-2-fluorophenyl)-7-methoxy-2-methylimidazo[1,2-a]pyridine-6-carboxamide]", "activation at 5 µM": "> 75"}, {"smiles": "CNC1CCN(c2ccc(NC(=O)c3cn4cc(C)nc4cc3OC)c(F)c2)CC1", "note": "[Compound 164, N-(2-fluoro-4-(4-(methylamino)piperidin-1-yl)phenyl)-7-methoxy-2-methylimidazo[1,2-a]pyridine-6-carboxamide]", "activation at 5 µM": "> 75"}, {"smiles": "CNCC1CCN(c2ccc(NC(=O)c3cn4cc(C)nc4cc3OC)c(F)c2)C1", "note": "(centres unmarked) [Compound 166, N-(2-fluoro-4-(3-((methylamino)methyl)pyrrolidin-1-yl)phenyl)-7-methoxy-2-methylimidazo[1,2-a]pyridine-6-carboxamide]", "activation at 5 µM": "< 50"}, {"smiles": "CNC1CCCN(c2ccc(NC(=O)c3cn4cc(C)nc4cc3OC)c(F)c2)C1", "note": "(centres unmarked) [Compound 167, N-(2-fluoro-4-(3-(methylamino)piperidin-1-yl)phenyl)-7-methoxy-2-methylimidazo[1,2-a]pyridine-6-carboxamide]", "activation at 5 µM": "50 to 75"}, {"smiles": "CCNC1CCN(c2ccc(NC(=O)c3cn4cc(C)nc4cc3OC)c(F)c2)C1", "note": "(centres unmarked) [Compound 168, N-(4-(3-(ethylamino)pyrrolidin-1-yl)-2-fluorophenyl)-7-methoxy-2-methylimidazo[1,2-a]pyridine-6-carboxamide]", "activation at 5 µM": "> 75"}, {"smiles": "COc1cc2nc(C)cn2cc1C(=O)Nc1ccc(N(C)C2CCNCC2)cc1F", "note": "[Compound 169, N-(2-fluoro-4-(methyl(piperidin-4-yl)amino)phenyl)-7-methoxy-2-methylimidazo[1,2-a]pyridine-6-carboxamide]", "activation at 5 µM": "50 to 75"}, {"smiles": "COc1cc2nc(C)cn2cc1C(=O)Nc1ccc(N2CCC3CC2CN3)cc1F", "note": "(centres unmarked) [Compound 170, N-(4-(2,6-diazabicyclo[3.2.1]octan-2-yl)-2-fluorophenyl)-7-methoxy-2-methylimidazo[1,2-a]pyridine-6-carboxamide]", "activation at 5 µM": "> 75"}, {"smiles": "COc1cc2nc(C)cn2cc1C(=O)Nc1ccc(N2CCC3(CCN3)C2)cc1F", "note": "(centres unmarked) [Compound 171, N-(2-fluoro-4-(1,6-diazaspiro[3.4]octan-6-yl)phenyl)-7-methoxy-2-methylimidazo[1,2-a]pyridine-6-carboxamide]", "activation at 5 µM": "> 75"}, {"smiles": "COc1cc2nc(C)cn2cc1C(=O)Nc1ccc(N2CCC3(CC2)COC(C)CN3)cc1F", "note": "(centres unmarked) [Compound 172, N-(2-fluoro-4-(3-methyl-4-oxa-1,9-diazaspiro[5.5]undecan-9-yl)phenyl)-7-methoxy-2-methylimidazo[1,2-a]pyridine-6-carboxamide]", "activation at 5 µM": "50 to 75"}, {"smiles": "CCOc1cc2nn(C)cc2cc1C(=O)Nc1ccc(N2CCN[C@@H](C)C2)nn1", "note": "[Compound 208, (S)-6-ethoxy-2-methyl-N-(6-(3-methylpiperazin-1-yl)pyridazin-3-yl)-2H-indazole-5-carboxamide HCl Salt]", "activation at 5 µM": "> 75"}]}, {"system": "PMS1", "assay": "Mini-Gene Reporter Assay—PMS1 (firefly luciferase mini-gene reporter transiently transfected into HEK293 cells)", "assay_type": "cell-based", "conditions": "Homo sapiens; mini-gene firefly luciferase reporter in HEK293 cells", "from_the_text": "as §1, §2, §3, §4", "units": {"IC50": "nM"}, "values": [{"smiles": "COc1cc2nc(C)cn2cc1C(=O)Nc1ccc(N2CC3CCC(C2)N3)cc1F", "note": "[Compound 165, N-(4-(3,8-diazabicyclo[3.2.1]octan-3-yl)-2-fluorophenyl)-7-methoxy-2-methylimidazo[1,2-a]pyridine-6-carboxamide]", "IC50": "< 1000"}, {"smiles": "COc1cc2nc(C)cn2cc1C(=O)Nc1ccc(N2CCNC(CC(F)F)C2)cc1F", "note": "(centres unmarked) [Compound 173, N-(4-(3-(2,2-difluoroethyl)piperazin-1-yl)-2-fluorophenyl)-7-methoxy-2-methylimidazo[1,2-a]pyridine-6-carboxamide]", "IC50": "1000 to 10000"}, {"smiles": "COc1cc2nc(C)cn2cc1C(=O)Nc1ccc(N2CCCNCC2)cc1F", "note": "[Compound 175, N-(4-(1,4-diazepan-1-yl)-2-fluorophenyl)-7-methoxy-2-methylimidazo[1,2-a]pyridine-6-carboxamide]", "IC50": "< 1000"}, {"smiles": "CNC1CCN(c2ccc(NC(=O)c3cn4cc(C)nc4cc3OC)c(F)c2)C1", "note": "(centres unmarked) [Compound 176, N-(2-fluoro-4-(3-(methylamino)pyrrolidin-1-yl)phenyl)-7-methoxy-2-methylimidazo[1,2-a]pyridine-6-carboxamide]", "IC50": "< 1000"}, {"smiles": "COc1cc2nc(C)cn2cc1C(=O)Nc1ccc(N2CCNCC2C)cc1F", "note": "(centres unmarked) [Compound 177, N-(2-fluoro-4-(2-methylpiperazin-1-yl)phenyl)-7-methoxy-2-methylimidazo[1,2-a]pyridine-6-carboxamide]", "IC50": "< 1000"}, {"smiles": "COc1cc2nc(C)cn2cc1C(=O)Nc1ccc(N(C)C2CCNC2)cc1F", "note": "(centres unmarked) [Compound 178, N-(2-fluoro-4-(methyl(pyrrolidin-3-yl)amino)phenyl)-7-methoxy-2-methylimidazo[1,2-a]pyridine-6-carboxamide]", "IC50": "< 1000"}, {"smiles": "COc1cc2nc(C)cn2cc1C(=O)Nc1ccc(N2CCNC(C)C2)cc1F", "note": "(centres unmarked) [Compound 179, N-(2-fluoro-4-(3-methylpiperazin-1-yl)phenyl)-7-methoxy-2-methylimidazo[1,2-a]pyridine-6-carboxamide]", "IC50": "< 1000"}, {"smiles": "COc1cc2nc(C)cn2cc1C(=O)Nc1ccc(N(C)C2CNC2)cc1F", "note": "[Compound 180, N-(4-(azetidin-3-yl(methyl)amino)-2-fluorophenyl)-7-methoxy-2-methylimidazo[1,2-a]pyridine-6-carboxamide]", "IC50": "< 1000"}, {"smiles": "COc1cc2nc(C)cn2cc1C(=O)Nc1cnc(N2CCN[C@@H](C)C2)cn1", "note": "[Compound 198, (S)-7-methoxy-2-methyl-N-(5-(3-methylpiperazin-1-yl)pyrazin-2-yl)imidazo[1,2-a]pyridine-6-carboxamide hydrochloride]", "IC50": "< 1000"}, {"smiles": "Cc1cn2cc(C(=O)Nc3ccc(N4CCN[C@@H](C)C4)nn3)c(OC(C)C)cc2n1", "note": "[Compound 199, (S)-7-isopropoxy-2-methyl-N-(6-(3-methylpiperazin-1-yl)pyridazin-3-yl)imidazo[1,2-a]pyridine-6-carboxamide]", "IC50": "< 1000"}, {"smiles": "Cc1cn2cc(C(=O)Nc3ccc(N4CCNCC4)nn3)c(OC3CCC3)cc2n1", "note": "[Compound 205, 7-cyclobutoxy-2-methyl-N-(6-(piperazin-1-yl)pyridazin-3-yl)imidazo[1,2-a]pyridine-6-carboxamide hydrochloride]", "IC50": "< 1000"}, {"smiles": "Cc1cn2cc(C(=O)Nc3ccc(N4CCN[C@@H](C)C4)nn3)c(OC3CCOC3)cc2n1", "note": "(stereo partly drawn) [Compound 206, 2-methyl-N-(6-((S)-3-methylpiperazin-1-yl)pyridazin-3-yl)-7-((tetrahydrofuran-3-yl)oxy)imidazo[1,2-a]pyridine-6-carboxamide hydrochloride]", "IC50": "< 1000"}, {"smiles": "Cn1cc2cc(C(=O)Nc3ccc(N4CCNCC4)nn3)c(OC3CCC3)cc2n1", "note": "[Compound 207, 6-cyclobutoxy-2-methyl-N-(6-(piperazin-1-yl)pyridazin-3-yl)-2H-indazole-5-carboxamide HCl Salt]", "IC50": "< 1000"}, {"smiles": "CCOc1cc2nn(C)cc2cc1C(=O)Nc1ccc(N2CCN[C@@H](C)C2)nn1", "note": "[Compound 208, (S)-6-ethoxy-2-methyl-N-(6-(3-methylpiperazin-1-yl)pyridazin-3-yl)-2H-indazole-5-carboxamide HCl Salt]", "IC50": "< 1000"}, {"smiles": "C[C@H]1CN(c2ccc(NC(=O)c3cc4cn(C)nc4cc3OC3CCC3)nn2)CCN1", "note": "[Compound 209, (S)-6-cyclobutoxy-2-methyl-N-(6-(3-methylpiperazin-1-yl)pyridazin-3-yl)-2H-indazole-5-carboxamide HCl Salt]", "IC50": "< 1000"}, {"smiles": "CCOc1cc2nc(C)cn2cc1C(=O)Nc1ccc(N2CCNC3(CC3)C2)nn1", "note": "[Compound 210, N-(6-4,7-diazaspiro[2.5]octan-7-ylpyridazin-3-yl)-7-ethoxy-2-methylimidazo[1,2-a]pyridine-6-carboxamide]", "IC50": "< 1000"}, {"smiles": "Cc1cn2cc(C(=O)Nc3ccc(N4CCN[C@@H](C)C4)nn3)c(OC3CCOCC3)cc2n1", "note": "[Compound 211, (S)-2-methyl-N-(6-(3-methylpiperazin-1-yl)pyridazin-3-yl)-7-((tetrahydro-2H-pyran-4-yl)oxy)imidazo[1,2-a]pyridine-6-carboxamide hydrochloride]", "IC50": "10000 to 50000"}, {"smiles": "Cc1cn2cc(C(=O)Nc3ccc(N4CCN[C@@H](C)C4)nn3)c(O[C@@H]3CCOC3)cc2n1", "note": "[Compound 212, 2-methyl-N-(6-((S)-3-methylpiperazin-1-yl)pyridazin-3-yl)-7-((tetrahydrofuran-3-yl)oxy)imidazo[1,2-a]pyridine-6-carboxamide]", "IC50": "1000 to 10000"}, {"smiles": "Cc1cn2cc(C(=O)Nc3ccc(N4CCN[C@@H](C)C4)nn3)c(O[C@H]3CCOC3)cc2n1", "note": "[Compound 213, 2-methyl-N-(6-((S)-3-methylpiperazin-1-yl)pyridazin-3-yl)-7-((tetrahydrofuran-3-yl)oxy)imidazo[1,2-a]pyridine-6-carboxamide]", "IC50": "< 1000"}, {"smiles": "CCc1nc(C(=O)Nc2ccc(N3CCN[C@@H](C)C3)nn2)cn2cc(C)nc12", "note": "[Compound 214, 8-ethyl-2-methyl-N-{6-[(3S)-3-methylpiperazin-1-yl]pyridazin-3-yl}imidazo[1,2-a]pyrazine-6-carboxamide]", "IC50": "< 1000"}, {"smiles": "CCOc1cn2nc(C)cc2cc1C(=O)Nc1ccc(N2CCN[C@@H](C)C2)nn1", "note": "[Compound 215, (S)-6-ethoxy-2-methyl-N-(6-(3-methylpiperazin-1-yl)pyridazin-3-yl)pyrazolo[1,5-a]pyridine-5-carboxamide HCl Salt]", "IC50": "< 1000"}]}]}
